Assay results: patent publication US6486144B1, “Method of treatment of liver tumors and pharmaceutical compositions for use therein” (priority 1997, dated 2002)
Values joined by “and” are separate entries in the source; they are usually repeats but may differ in a detail not shown here. Identical values can stand only once. “Also recorded” adds a separate entry of the source.

Assays:
breast cancer = settings: topical, cited from earlier work
[1] = test system: liver cancers (hepatoma or colorectal cancer metastases); test: Phase 1 trial of hepatic artery infusion: tumour marker (CEA or AFP) response; type: in vivo, human; settings: for patients with at least a limited response (fall in the rate of rise of tumour marker): hepatic artery infusion
Text: 2. To investigate the effects of such an infusion upon liver cancers by monitoring of tumour marker levels and their rate of rise. […] Regular assay of LFTs, UECs, and calcium and phosphate levels, together with AFP or CEA levels. CEA or AFP levels—looking for evidence of response of the tumours to treatment

[2] = type: physicochemical
Protocol: To illustrate the solubility of vitamin D compound in lipiodol radiolabelled vitamin D3 was dissolved in lipiodol at various amounts and the compared to the solubility of radiolabelled vitamin D3.

human hepatoma = settings: cited from earlier work
Hep 1-6 = test: effect of EB1089 on hepatoma cell line Hep 1-6; type: cell-based; parameters: unit not given here; settings: day 5, 5% charcoal treated media, repeated experiments
Text: (§1) (All experiments carried out in 5% charcoal treated media. All day 5. Successive lines of results for a particular cell line are the results for repeated experiment)

[3] = test system: human hepatoma cell line, Hep G2; test: in vitro growth of human hepatoma cell line Hep G2 (thymidine uptake); type: cell-based; settings: for % of control ±SEM: treated for 5 days
Protocol: (§2) Results are % of control ±SEM
(§3) LoVo cells were treated for 10 days, while HepG2 cells were treated for 5 days, with D3 or EB1089.

HTC = test: effect of EB1089 on hepatoma cell line HTC; type: cell-based; parameters: unit not given here; settings: day 5, 5% charcoal treated media, repeated experiments
Text: as §1

[4] = test system: human colon cancer cells LoVo; test: in vitro growth of human colon cancer cells LoVo; type: cell-based; settings: treated for 10 days
Protocol: as §2, §3

PCL = test: effect of EB1089 on hepatoma cell line PCL; type: cell-based; parameters: unit not given here; settings: day 5, 5% charcoal treated media, repeated experiments
Text: as §1

Morris = test: effect of EB1089 on hepatoma cell line Morris; type: cell-based; parameters: unit not given here; settings: day 5, 5% charcoal treated media, repeated experiments
Text: as §1

NovoKoff = test: effect of EB1089 on hepatoma cell line NovoKoff; type: cell-based; parameters: unit not given here; settings: day 5, 5% charcoal treated media, repeated experiments
Text: as §1

SK-Hep = test: effect of EB1089 on hepatoma cell line SK-Hep; type: cell-based; parameters: unit not given here; settings: day 5, 5% charcoal treated media, repeated experiments
Text: as §1

[5] = 2 mcg/day administered orally; cited from earlier work
[6] = Phase 1 trial of hepatic artery infusion: safety, serum calcium; type: in vivo, human
Text: Regular assay of LFTs, UECs, and calcium and phosphate levels, together with AFP or CEA levels.
Patients 3, 5 and 6 were initially given 2 mcg/day, and then four weeks of 5 mcg/week.
Patient 4 was hypercalcaemic due to a paraneoplastic phenomena prior to treatment, and was therefore given lower dosages.
Patient 7 was commenced on the same dosage regimen as patients 3, 5 and 6 but was withdrawn from the trial prior to starting 10 mcg/day due to progression of their disease.
Calcium levels—looking for the development of hypercalcaemia
UECs and LFTs—looking for unexpected effects upon hepatic and renal function.

[7] = pig model, intravenous versus hepatic arterial infusion, serum calcium; type: in vivo, Female Landrace pigs; settings: for calcium levels: pig
Text: Female Landrace pigs (minimal disease) of weight 15-50 kg.
This infusion was delivered for a one or two week period, after which the animal was not treated for 4 weeks to allow any induced hepatic enzymes to diminish. The animal was then “crossed over” those whose first infusion was via the hepatic artery had their pump connected to an intravenous catheter and vice versa.
Blood was taken regularly and assayed foe calcium levels, LFTs and UECs.

Compound: C=C1/C(=C\C=C2/CCC[C@]3(C)[C@@H]([C@H](C)/C=C/[C@@H](O)C4CC4)CC[C@@H]23)C[C@@H](O)C[C@@H]1O [Calcipotriol, calcipotriol]
- patients with a minimal response (breast cancer; of the 19 patients treated): 1 patients
- patients with a significant response (breast cancer; of the 19 patients treated): 3 patients
- patients who became hypercalcaemic during treatment (breast cancer): 2 of the 19 patients

Compound: C=C1CC[C@H](O)C/C1=C/C=C1\CCC[C@]2(C)[C@@H]([C@H](C)CCCC(C)C)CC[C@@H]12 [vitamin D3, cholecalciferol]
- patients with at least a limited response (fall in the rate of rise of tumour marker) [1]: 4 of 7 patients
- solubility in lipiodol compared with aqueous medium [2]: substantially more soluble in lipiodol

Compound: CC/C(=C(\c1ccccc1)c1ccc(OCCN(C)C)cc1)c1ccccc1 [Tamoxifen]
- survival (human hepatoma): significantly, but modestly, improve survival

Compound: C=C1/C(=C\C=C2/CCC[C@]3(C)[C@@H]([C@H](C)/C=C/C=C/C(O)(CC)CC)CC[C@@H]23)C[C@@H](O)C[C@@H]1O [EB1089, 1 α.25 (OH)2 22.24 diene 24.26.27 trihomo D3]
- effect on hepatoma cell line (Hep 1-6; Hep 1-6, 10^8 M): 63.9 ± 7.0 and 113.4 ± 5.6
- effect on hepatoma cell line (Hep 1-6; Hep 1-6, 10^9 M): 78.1 ± 11.4 and 106.7 ± 5.4
- effect on hepatoma cell line (Hep 1-6; Hep 1-6, 10^11 M): 103.4 ± 9.2 and 98.1 ± 4.3
- effect on hepatoma cell line (Hep 1-6; Hep 1-6, 10^-10 M): 110.8 ± 13.8 and 103.5 ± 4.5
- % of control ±SEM ([3]; HepG2, 10^−7 M): 11.2 ± 2.7 % of control
- % of control ±SEM ([3]; HepG2, 10^−8 M): 13.1 ± 2.8 % of control
- % of control ±SEM ([3]; HepG2, 10^−9 M): 13.2 ± 2.7 % of control
- % of control ±SEM ([3]; HepG2, 10^−10 M): 49.1 ± 2.9 % of control
- % of control ±SEM ([3]; HepG2, 10^−11 M): 41.7 ± 3.6 % of control
- effect on hepatoma cell line (HTC; 10^7 M): 95.3 ± 17.7 and 57.9 ± 7.2
- effect on hepatoma cell line (HTC; 10^8 M): 86.9 ± 15.0 and 63.9 ± 12.5
- effect on hepatoma cell line (HTC; 10^9 M): 100.4 ± 15.4 and 97.4 ± 13.8
- effect on hepatoma cell line (HTC; 10^11 M): 98.8 ± 15.5 and 95.9 ± 13.0
- effect on hepatoma cell line (HTC; 10^-10 M): 113.0 ± 22.1 and 107.8 ± 12.7
- % of control ±SEM ([4]; 10^−7 M): 40.5 ± 10.7 % of control
- % of control ±SEM ([4]; 10^−8 M): 51.0 ± 10.3 % of control
- % of control ±SEM ([4]; 10^−9 M): 73.3 ± 11.7 % of control
- % of control ±SEM ([4]; 10^−10 M): 55.3 ± 13.7 % of control
- % of control ±SEM ([4]; 10^−11 M): 64.7 ± 12.7 % of control
- effect on hepatoma cell line (PCL; 10^7 M): 98.5 ± 4.5 and 106.0 ± 9.1
- effect on hepatoma cell line (PCL; 10^8 M): 101.6 ± 11.5 and 105.2 ± 4.9
- effect on hepatoma cell line (PCL; 10^9 M): 98.3 ± 6.5 and 95.1 ± 3.3
- effect on hepatoma cell line (PCL; 10^10 M): 92.5 ± 6.6 and 100.1 ± 2.1
- effect on hepatoma cell line (PCL; 10^11 M): 102.5 ± 10.0 and 95.9 ± 2.9
- effect on hepatoma cell line (Morris; 10^7 M): 136.0 ± 12.5 and 80.1 ± 5.2
- effect on hepatoma cell line (Morris; 10^8 M): 134.0 ± 13.3 and 83.3 ± 4.7
- effect on hepatoma cell line (Morris; 10^9 M): 117.8 ± 11.7 and 79.1 ± 4.9
- effect on hepatoma cell line (Morris; 10^10 M): 118.0 ± 11.9 and 88.3 ± 3.9
- effect on hepatoma cell line (Morris; 10^-11 M): 118.0 ± 14.3 and 90.8 ± 5.9
- effect on hepatoma cell line (NovoKoff; 10^7 M): 91.5 ± 14.5 and 84.6 ± 17.0
- effect on hepatoma cell line (NovoKoff; 10^8 M): 106.0 ± 18.1 and 79.0 ± 18.4
- effect on hepatoma cell line (NovoKoff; 10^9 M): 103.7 ± 13.8 and 95.4 ± 18.2
- effect on hepatoma cell line (NovoKoff; 10^11 M): 131.0 ± 15.9 and 92.6 ± 17.6
- effect on hepatoma cell line (NovoKoff; 10^-10 M): 116.3 ± 22.1 and 94.0 ± 21.4
- effect on hepatoma cell line (SK-Hep; 10^8 M): 63.1 ± 16.2 and 71.3 ± 11.8 and 83.1 ± 4.2 and 95.6 ± 12.2
- effect on hepatoma cell line (SK-Hep; 10^9 M): 52.1 ± 8.8 and 61.6 ± 12.2 and 88.4 ± 4.1 and 103.1 ± 12.4
- effect on hepatoma cell line (SK-Hep; 10^11 M): 82 ± 9.2 and 78.8 ± 11.5 and 118.3 ± 26.4 and 66.9 ± 36.9
- effect on hepatoma cell line (SK-Hep; 10^-10 M): 52.1 ± 8.6 and 61.1 ± 16.6 and 91.0 ± 4.5 and 103.8 ± 11.7

Compound: C=C1/C(=C\C=C2/CCC[C@]3(C)[C@@H]([C@H](C)CCCC(C)(C)O)CC[C@@H]23)C[C@@H](O)C[C@@H]1O [1.25(OH)2D3, 1.25-dihydroxycholecalciferol]
- inhibition of growth ([3]; Hep G2, 10^−11M): considerably less effective
- inhibition of growth ([3]; Hep G2, reduction in thymidine uptake, dose dependent (FIG. 1)): 95%
- % of control ±SEM ([3]; HepG2, 10^−7 M): 7.1 ± 6.3 % of control
- % of control ±SEM ([3]; HepG2, 10^−8 M): 8.6 ± 6.3 % of control
- % of control ±SEM ([3]; HepG2, 10^−9 M): 13.8 ± 6.4 % of control
- % of control ±SEM ([3]; HepG2, 10^−10 M): 56.6 ± 6.7 % of control
- % of control ±SEM ([3]; HepG2, 10^−11 M): 105.6 ± 6.6 % of control
- % of control ±SEM ([4]; 10^−7 M): 34.2 ± 3.8 % of control
- % of control ±SEM ([4]; 10^−8 M): 53.1 ± 5.0 % of control
- % of control ±SEM ([4]; 10^−9 M): 74.2 ± 6.8 % of control
- % of control ±SEM ([4]; 10^−10 M): 96.5 ± 12.9 % of control
- % of control ±SEM ([4]; 10^−11 M): 127.4 ± 7.1 % of control
- hypercalcaemia, share of patients [5]: 50 % of patients
- hypercalcaemia developed ([6]; hepatic arterial infusion, 15 mcg/day): two out of three patients
- derangement of hepatic or renal function ([6]; hepatic artery infusion, seven patients): Nor did any patient experience any derangement of hepatic or renal function
- unexpected adverse reaction or side effect to the infusion ([6]; hepatic artery infusion, seven patients, listed as 1.25(OH)D3): No patient suffered any unexpected adverse reaction or side effect; also recorded: safe and without unexpected side effects
- dose administered without any observable systemic toxicity ([6]; intraarterially to the liver, patients): at least 10 mcg/day
- calcium level ([6]; patient with pre existing hypercalcaemia (FIG. 3)): did not rise with treatment
- hypercalcaemia during treatment ([6]; patients 1 and 2, lower doses): Neither patients 1 nor 2 became hypercalcaemic
- calcium levels ([7]; hepatic arterial infusion, similar dosage, listed as 1.25(OH)D3): does not affect calcium levels; also recorded: does not produce the hypercalcaemia
- calcium levels ([7]; intravenous infusion): results in hypercalcaemia
- LFTs and UECs ([7]; pigs, either route): normal in all animals throughout
- unexpected reaction ([7]; pigs, either route): No pig suffered any unexpected reaction
- patients with at least a limited response (fall in the rate of rise of tumour marker) [1]: 4 of 7 patients
- tumour marker level ([1]; patient 1): dramatically increased at the onset of treatment but this was followed by an equally dramatic fall in the level
- tumour marker level ([1]; patient 2): levelling off of the rate of rise with time
- tumour marker level ([1]; patient 3): dramatic fall in marker level initially, but later this resumed it rise
- rate of rise of CEA levels ([1]; patient 7): appears to have slowed somewhat
- CEA levels rate of rise ([1]; patients 5 and 6): did not appear to have any response to treatment
- amount readily dissolved ([2]; in 1 ml lipiodol): ≥ 2 mg
